Laboratory results from PubChem BioAssay AID1918957 (Molecular Pharmacology Branch, DTP, NCI, 2023).
pIC50: −log10 of the molar value. Activity calls are given as the source filed them. How the source made its calls: active means viability on the fitted dose curve at most 10% of control; inactive means the rest.

Test system: NCI-H1876 complex spheroid viability
Assay: Anticancer human tumor NCI-H1876 cell line growth inhibition [LSD1];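 on pIC50: spheroids exposed to compounds for one week before readout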;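 on viability, T/C: spheroids exposed to compounds for one week before readout; 100% = DMSO vehicle-treated spheroids so lower means fewer viable cells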
Conditions: for pIC50: curve of first compound; for viability, T/C: stronger effect = lower value
Summary of the method: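 Multicellular complex spheroids of tumor cells with human endothelial cells (HUVEC) and mesenchymal stem cells; the LSD1 inhibitor iadademstat was combined with standard-of-care or investigational agents. Top concentration at or near clinical Cmax, half-log dilutions; final DMSO ≤0.25%.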

[1] = second compound 0.1 µM, first compound 0.0316 µM
[2] = second compound 0.1 µM, first compound 0.1 µM
[3] = second compound 0.316 µM, first compound 0.0316 µM
[4] = second compound 0.316 µM, first compound 0.1 µM
[5] = second compound 1 µM, first compound 0.0316 µM
[6] = second compound 1 µM, first compound 0.1 µM
[7] = second compound 3.16 µM, first compound 0.0316 µM
[8] = second compound 3.16 µM, first compound 0.1 µM
[9] = second compound 10 µM, first compound 0.0316 µM
[10] = second compound 10 µM, first compound 0.1 µM
[11] = second compound 0.1 µM, first compound 0.000949 µM
[12] = second compound 0.1 µM, first compound 0.003 µM
[13] = second compound 0.1 µM, first compound 0.00949 µM
[14] = second compound 0.1 µM, first compound 0.03 µM
[15] = second compound 0.1 µM, first compound 0.0949 µM
[16] = second compound 0.1 µM, first compound 0.3 µM
[17] = second compound 0.316 µM, first compound 0.000949 µM
[18] = second compound 0.316 µM, first compound 0.003 µM
[19] = second compound 0.316 µM, first compound 0.00949 µM
[20] = second compound 0.316 µM, first compound 0.03 µM
[21] = second compound 0.316 µM, first compound 0.0949 µM
[22] = second compound 0.316 µM, first compound 0.3 µM
[23] = second compound 1 µM, first compound 0.000949 µM
[24] = second compound 1 µM, first compound 0.003 µM
[25] = second compound 1 µM, first compound 0.00949 µM
[26] = second compound 1 µM, first compound 0.03 µM
[27] = second compound 1 µM, first compound 0.0949 µM
[28] = second compound 1 µM, first compound 0.3 µM
[29] = second compound 3.16 µM, first compound 0.000949 µM
[30] = second compound 3.16 µM, first compound 0.003 µM
[31] = second compound 3.16 µM, first compound 0.00949 µM
[32] = second compound 3.16 µM, first compound 0.03 µM
[33] = second compound 3.16 µM, first compound 0.0949 µM
[34] = second compound 3.16 µM, first compound 0.3 µM
[35] = second compound 10 µM, first compound 0.000949 µM
[36] = second compound 10 µM, first compound 0.003 µM
[37] = second compound 10 µM, first compound 0.00949 µM
[38] = second compound 10 µM, first compound 0.03 µM
[39] = second compound 10 µM, first compound 0.0949 µM
[40] = second compound 10 µM, first compound 0.3 µM

CC[C@@]1(O)C(=O)OCc2c1cc1n(c2=O)Cc2cc3c(CN(C)C)c(O)ccc3nc2-1 + NC1CCC(NC2CC2c2ccccc2)CC1
pIC50 (second compound 0.1 µM): 8.79 | pIC50 (second compound 0.316 µM): 8.67 | pIC50 (second compound 1 µM): 8.67 | pIC50 (second compound 3.16 µM): 8.66 | pIC50 (second compound 10 µM): 8.69 | viability, T/C (second compound 0.1 µM, first compound 0.000316 µM): 105% | outcome (second compound 0.1 µM, first compound 0.001 µM): inactive | viability, T/C (second compound 0.1 µM, first compound 0.00316 µM): 33.1% | viability, T/C (second compound 0.1 µM, first compound 0.01 µM): 23.1% | viability, T/C [1]: 12.1% | viability, T/C [2]: 16.7% | viability, T/C (second compound 0.316 µM, first compound 0.000316 µM): 110% | viability, T/C (second compound 0.316 µM, first compound 0.001 µM): 94.2% | viability, T/C (second compound 0.316 µM, first compound 0.00316 µM): 27.5% | viability, T/C (second compound 0.316 µM, first compound 0.01 µM): 29.9% | viability, T/C [3]: 17.3% | viability, T/C [4]: 14.7% | viability, T/C (second compound 1 µM, first compound 0.000316 µM): 113% | viability, T/C (second compound 1 µM, first compound 0.001 µM): 92.3% | viability, T/C (second compound 1 µM, first compound 0.00316 µM): 27.6% | viability, T/C (second compound 1 µM, first compound 0.01 µM): 31.8% | viability, T/C [5]: 18.4% | viability, T/C [6]: 8.81% | viability, T/C (second compound 3.16 µM, first compound 0.000316 µM): 112% | viability, T/C (second compound 3.16 µM, first compound 0.001 µM): 102% | viability, T/C (second compound 3.16 µM, first compound 0.00316 µM): 25% | viability, T/C (second compound 3.16 µM, first compound 0.01 µM): 19.3% | viability, T/C [7]: 19% | viability, T/C [8]: 9.21% | viability, T/C (second compound 10 µM, first compound 0.000316 µM): 112% | viability, T/C (second compound 10 µM, first compound 0.001 µM): 90.3% | viability, T/C (second compound 10 µM, first compound 0.00316 µM): 24.2% | viability, T/C (second compound 10 µM, first compound 0.01 µM): 24.3% | viability, T/C [9]: 20% | viability, T/C [10]: 19.4%

CCc1c2c(nc3ccc(O)cc13)-c1cc3c(c(=O)n1C2)COC(=O)[C@]3(O)CC + NC1CCC(NC2CC2c2ccccc2)CC1
pIC50 (second compound 0.1 µM): > 9.02 | pIC50 (second compound 0.316 µM): > 9.02 | pIC50 (second compound 1 µM): > 9.02 | pIC50 (second compound 3.16 µM): > 9.02 | pIC50 (second compound 10 µM): > 9.02 | viability, T/C [11]: 8.41% | viability, T/C [12]: 6.69% | viability, T/C [13]: 4.51% | viability, T/C [14]: 17% | viability, T/C [15]: 0.42% | viability, T/C [16]: 0.51% | viability, T/C [17]: 9.1% | viability, T/C [18]: 7.39% | viability, T/C [19]: 26.4% | viability, T/C [20]: 34.6% | viability, T/C [21]: 0.46% | viability, T/C [22]: 0.47% | viability, T/C [23]: 9.13% | viability, T/C [24]: 7.08% | viability, T/C [25]: 3.54% | viability, T/C [26]: 16.9% | viability, T/C [27]: 0.38% | viability, T/C [28]: 0.41% | viability, T/C [29]: 7.88% | viability, T/C [30]: 7% | viability, T/C [31]: 4.05% | viability, T/C [32]: 8.64% | viability, T/C [33]: 0.31% | viability, T/C [34]: 0.45% | viability, T/C [35]: 9.76% | viability, T/C [36]: 7.48% | viability, T/C [37]: 31.4% | viability, T/C [38]: 8.78% | viability, T/C [39]: 15.6% | viability, T/C [40]: 0.65%

Nc1ccccc1NC(=O)c1ccc(CNC(=O)OCc2cccnc2)cc1 + NC1CCC(NC2CC2c2ccccc2)CC1
pIC50 (second compound 0.1 µM): 6.73 | pIC50 (second compound 0.316 µM): 6.75 | pIC50 (second compound 1 µM): 6.73 | pIC50 (second compound 3.16 µM): 6.77 | pIC50 (second compound 10 µM): 6.75 | viability, T/C [13]: 98.5% | viability, T/C [14]: 109% | viability, T/C [15]: 90.6% | viability, T/C [16]: 21.2% | viability, T/C (second compound 0.1 µM, first compound 0.949 µM): 4.45% | viability, T/C (second compound 0.1 µM, first compound 3 µM): 1.28% | viability, T/C [19]: 113% | viability, T/C [20]: 108% | viability, T/C [21]: 78.3% | viability, T/C [22]: 26.3% | viability, T/C (second compound 0.316 µM, first compound 0.949 µM): 3.15% | viability, T/C (second compound 0.316 µM, first compound 3 µM): 1.03% | viability, T/C [25]: 114% | viability, T/C [26]: 115% | viability, T/C [27]: 86.2% | viability, T/C [28]: 23.3% | viability, T/C (second compound 1 µM, first compound 0.949 µM): 11.6% | viability, T/C (second compound 1 µM, first compound 3 µM): 1.66% | viability, T/C [31]: 111% | viability, T/C [32]: 104% | viability, T/C [33]: 80% | viability, T/C [34]: 21.2% | viability, T/C (second compound 3.16 µM, first compound 0.949 µM): 2.36% | viability, T/C (second compound 3.16 µM, first compound 3 µM): 0.71% | viability, T/C [37]: 102% | viability, T/C [38]: 102% | viability, T/C [39]: 86.5% | viability, T/C [40]: 20.2% | viability, T/C (second compound 10 µM, first compound 0.949 µM): 10.6% | viability, T/C (second compound 10 µM, first compound 3 µM): 1.74%

Nc1ccn(C2OC(CO)C(O)C2(F)F)c(=O)n1 (stereo not given) + NC1CCC(NC2CC2c2ccccc2)CC1
pIC50 (second compound 0.1 µM): 8.16 | pIC50 (second compound 0.316 µM): 8.17 | pIC50 (second compound 1 µM): 8.17 | pIC50 (second compound 3.16 µM): 8.17 | pIC50 (second compound 10 µM): 8.20 | viability, T/C [11]: 111% | viability, T/C [12]: 101% | viability, T/C [13]: 30.3% | viability, T/C [14]: 22.3% | viability, T/C [15]: 22.9% | viability, T/C [16]: 10.8% | viability, T/C [17]: 104% | viability, T/C [18]: 96% | viability, T/C [19]: 29.7% | viability, T/C [20]: 18.1% | viability, T/C [21]: 11.7% | viability, T/C [22]: 9.66% | viability, T/C [23]: 111% | viability, T/C [24]: 96.7% | viability, T/C [25]: 30.3% | viability, T/C [26]: 18.6% | viability, T/C [27]: 12.1% | viability, T/C [28]: 11.3% | viability, T/C [29]: 110% | viability, T/C [30]: 107% | viability, T/C [31]: 26.2% | viability, T/C [32]: 23.2% | viability, T/C [33]: 17.9% | viability, T/C [34]: 9.56% | viability, T/C [35]: 109% | viability, T/C [36]: 90.8% | viability, T/C [37]: 26.4% | viability, T/C [38]: 23.5% | viability, T/C [39]: 17.8% | viability, T/C [40]: 10.5%

O=C(c1cc(Cc2n[nH]c(=O)c3ccccc23)ccc1F)N1CCN(C(=O)C2CC2)CC1 + NC1CCC(NC2CC2c2ccccc2)CC1
pIC50 (second compound 0.1 µM): 5.18 | pIC50 (second compound 0.316 µM): 5.21 | pIC50 (second compound 1 µM): 5.21 | pIC50 (second compound 3.16 µM): 5.27 | pIC50 (second compound 10 µM): 5.30 | viability, T/C [1]: 90.7% | viability, T/C [2]: 99.4% | viability, T/C (second compound 0.1 µM, first compound 0.316 µM): 89.4% | viability, T/C (second compound 0.1 µM, first compound 1 µM): 94.8% | viability, T/C (second compound 0.1 µM, first compound 3.16 µM): 76.2% | viability, T/C (second compound 0.1 µM, first compound 10 µM): 35.4% | viability, T/C [3]: 99.2% | viability, T/C [4]: 93% | viability, T/C (second compound 0.316 µM, first compound 0.316 µM): 89.4% | viability, T/C (second compound 0.316 µM, first compound 1 µM): 87.2% | viability, T/C (second compound 0.316 µM, first compound 3.16 µM): 69.5% | viability, T/C (second compound 0.316 µM, first compound 10 µM): 35.5% | viability, T/C [5]: 90.2% | viability, T/C [6]: 93% | viability, T/C (second compound 1 µM, first compound 0.316 µM): 91.5% | viability, T/C (second compound 1 µM, first compound 1 µM): 79.7% | viability, T/C (second compound 1 µM, first compound 3.16 µM): 70.5% | viability, T/C (second compound 1 µM, first compound 10 µM): 35.8% | viability, T/C [7]: 90.7% | viability, T/C [8]: 95.4% | viability, T/C (second compound 3.16 µM, first compound 0.316 µM): 86.7% | viability, T/C (second compound 3.16 µM, first compound 1 µM): 86.7% | viability, T/C (second compound 3.16 µM, first compound 3.16 µM): 64.5% | viability, T/C (second compound 3.16 µM, first compound 10 µM): 32.7% | viability, T/C [9]: 95.7% | viability, T/C [10]: 90.6% | viability, T/C (second compound 10 µM, first compound 0.316 µM): 85.9% | viability, T/C (second compound 10 µM, first compound 1 µM): 79.8% | viability, T/C (second compound 10 µM, first compound 3.16 µM): 64.6% | viability, T/C (second compound 10 µM, first compound 10 µM): 29.9%
